From US7258882B2, “System for maintaining fresh quality and safe food attributes of minimally processed produce” (priority 2002, dated 2007) come the findings set out here.

In the assay the test system is total aerobic population. Description: Total aerobic plate count of washed, packaged and stored mushrooms. The source says:
Mushrooms were either 1) untreated (unwashed), that is, left as picked; 2) sodium metabisulfite (sulfite treated) washed. Mushrooms were water rinsed with tap water for 2 seconds then processed through 2 consecutive dip tanks containing 500 ppm sodium metabisulfite in solution; or 3) Washed using the herein disclosed process (new wash) specifically as follows: Mushrooms were conveyed on a slotted conveyor belt and sprayed with tap water for 2 seconds. They dropped into a series of two dip tanks containing 3% (w/v) sodium erythorbate, 0.15% (w/v) disodium EDTA, 0.15% (w/v) calcium chloride. Total residence time was 30 seconds. The whole mushrooms were then treated by dipping in water containing 2 ppm ozone (15 second exposure) followed immediately by 10 second exposure to ultraviolet lamp. Half of the mushroom were sliced and again exposed to 10 seconds of ultraviolet lamp. The mushrooms were packaged and stored at either 35, 45 or 55 degrees Fahrenheit and analyzed microbiologically at day 0, 3, 6, and 9 for total aerobic plate count with a sensitivity of 1,000 cfu/gram, and day 3,6 and 9 for organoleptic properties including degree of whiteness, amount of veil opening, and overall salability/quality. Storage at 45 and 55 degrees Fahrenheit represent physiologically stressful conditions and will illustrate benefits of treatments to a greater extent than 35 degree F. storage. For all examples, data was analyzed statistically using single factor ANOVA and Student's T-test preparing two groups and assuming equal variances. All data was analyzed at 95% confidence levels. Mushrooms were either 1) Mushrooms were washed with water (2-3 second drench with tap water) then processed through 2 consecutive dip tanks containing an aqueous solution of 500 ppm sodium metabisulfite (sulfite treated); or 2) Washed using the herein disclosed process (new wash) specifically as follows: Mushrooms were conveyed on a slotted conveyor belt and sprayed with tap water for […]. They dropped into a series of two dip tanks containing 3% (w/v) sodium erythorbate, 0.15% (w/v) disodium EDTA, 0.15% (w/v) calcium chloride. Total residence time was 30 seconds. The whole mushrooms were then treated with 2 ppm ozone spray followed by 10 second exposure to ultraviolet lamp. Half of the mushroom were sliced and again exposed to 10 seconds of ultraviolet lamp. The mushrooms were packaged and stored at either 35, 45 or 55 degrees Fahrenheit. 35 degree F. stored samples were analyzed at day 0, 2, 6, and 9 and 14 for total aerobic plate count. Both 35 and 45 degree F. stored samples were analyzed on day 2, 6, 9 and 14 for organoleptic properties including degree of whiteness, amount of veil opening, and overall salability/quality. Storage at 45 degrees Fahrenheit represent physiologically stressful conditions and will illustrate benefits of treatments to a greater extent than 35 degree F. storage. Mushrooms were either 1) untreated (unwashed), that is, left as picked; 2)sodium metabisulfite (sulfite treated) washed. Mushrooms were water rinsed with tap water for 5 seconds then processed through 2 consecutive dip tanks containing 500 ppm sodium metabisulfite; or 3)Washed using the herein disclosed process (new wash) specifically as follows: Mushrooms were conveyed on a slotted conveyor belt and sprayed with tap water for 2 seconds. They dropped into a series of two dip tanks containing 3% (w/v) sodium erythorbate, 0.3% (w/v) sodium chloride, 0.3% (w/v) calcium chloride. Total residence time was 30 seconds. In the third treatment (new wash 1) the whole mushrooms were then treated with 2 ppm ozone spray followed immediately by 10 second exposure to ultraviolet lamp. New wash 2 mushrooms were treated as described above but was treated only with ozone, no ultraviolet light. New wash 3 mushrooms were treated with 7 seconds of ultraviolet light, no ozone. New wash 4 mushrooms were treated with ozone and ultraviolet light simultaneously. […]

On to `O=S([O-])S(=O)(=O)[O-].[Na+].[Na+]` [sulfite treated, sodium metabisulfite], for which the Total plate count runs as follows: (Experiment 1, 35 degrees Fahrenheit, sliced, Day 0) 178,805 cfu/g; (Experiment 1, 35 degrees Fahrenheit, sliced, Day 3) 12,344,021 cfu/g; (Experiment 1, 35 degrees Fahrenheit, sliced, Day 6) 31345339 cfu/g; (Experiment 1, 35 degrees Fahrenheit, sliced, Day 9) 383205051 cfu/g; (Experiment 1, 35 degrees Fahrenheit, whole, Day 0) 299,999 cfu/g; (Experiment 1, 35 degrees Fahrenheit, whole, Day 3) 3,849,234 cfu/g. For the same compound, the Total plate count was 20709887 cfu/g (Experiment 1, 35 degrees Fahrenheit, whole, Day 6); 31562526 cfu/g (Experiment 1, 35 degrees Fahrenheit, whole, Day 9); 69,673,049 cfu/g (Experiment 1, 45 degrees Fahrenheit, sliced, Day 3); 216,318,555 cfu/g (Experiment 1, 45 degrees Fahrenheit, whole, Day 3); 381,362,639 cfu/g (Experiment 1, 55 degrees Fahrenheit, sliced, Day 3); 145,637,959 cfu/g (Experiment 1, 55 degrees Fahrenheit, whole, Day 3). For the same compound, the Total plate count (Experiment 2, 35 degrees Fahrenheit, sliced, Day 0) was 168,922 cfu/g; the Total plate count (Experiment 2, 35 degrees Fahrenheit, sliced, Day 2) is given as 736,188 cfu/g; the Total plate count (Experiment 2, 35 degrees Fahrenheit, sliced, Day 6) is 6,101,012 cfu/g; the Total plate count (Experiment 2, 35 degrees Fahrenheit, sliced, Day 9) is reported as 7,976,377 cfu/g; the Total plate count (Experiment 2, 35 degrees Fahrenheit, sliced, Day 14) is on record as 702,413,006 cfu/g; the Total plate count (Experiment 2, 35 degrees Fahrenheit, whole, Day 0) was 24,188 cfu/g. Besides, the Total plate count reads like this: (Experiment 2, 35 degrees Fahrenheit, whole, Day 2) 59,492 cfu/g; (Experiment 2, 35 degrees Fahrenheit, whole, Day 6) 428,579 cfu/g; (Experiment 2, 35 degrees Fahrenheit, whole, Day 9) 734,285 cfu/g; (Experiment 2, 35 degrees Fahrenheit, whole, Day 14) 253,940,711 cfu/g. Moreover, the “Total Plate Count Sliced” value (Experiment 3, sliced, within 18 hours of processing) was 918,987 cfu/gram. In addition, where the note is “Experiment 3, whole, within 18 hours of processing”, the “Total Plate Count Whole” value is given as 352,745 cfu/gram.
